The experiment deals with T1, Bombesin receptor subtype‐3 (BRS‐3) (Rattus norvegicus, UniProt Q8K418).
T1 construct: gene Brs3
T1 sequence (Q8K418 1-399): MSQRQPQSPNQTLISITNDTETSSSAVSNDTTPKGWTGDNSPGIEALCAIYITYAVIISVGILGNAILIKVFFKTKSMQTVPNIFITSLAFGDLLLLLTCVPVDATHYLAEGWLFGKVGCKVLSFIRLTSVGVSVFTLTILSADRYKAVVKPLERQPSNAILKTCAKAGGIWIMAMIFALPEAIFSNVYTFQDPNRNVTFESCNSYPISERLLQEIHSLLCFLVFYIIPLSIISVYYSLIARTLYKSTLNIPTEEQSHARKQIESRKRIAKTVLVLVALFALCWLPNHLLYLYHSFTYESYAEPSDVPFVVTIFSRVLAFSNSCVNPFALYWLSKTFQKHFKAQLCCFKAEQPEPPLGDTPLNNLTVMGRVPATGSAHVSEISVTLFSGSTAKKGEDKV
In words: agonist-induced Ca2+ mobilization, aequorin bioluminescence assay in CHO-K1 cells overexpressing BRS-3. In kind it is cell-based. A general note: A change in cytosolic calcium serves as a functional read-out for many receptors and channels.

The source of these data is PMC5853643, “Bombesin receptor subtype‐3‐expressing neurons regulate energy homeostasis through a novel neuronal pathway in the hypothalamus” (Brain and Behavior, 2017).

One may read the EC50 as the concentration that produces a half-maximal response. Low readings indicate an effect from little substance, high ones a need for much substance. `COc1ccc2c(c1)C(=O)N(Cc1ccccc1)C(C(=O)NC(C)(C)C)c1ccccc1-2` (racemic) [compound-C, compound‐C]: the EC50 was found to be 130 nM.
Compound `COc1ccc2c(c1)C(=O)N(Cc1ccccc1)C(C(=O)NC(C)(C)C)c1ccccc1-2` (racemic) [compound-A, 6‐benzyl‐N‐tert‐butyl‐9‐methoxy‐7‐oxo‐6,7‐dihydro‐5H‐dibenzo[c,e]azepine‐5‐carboxamide] registered an EC50 of 100 nM.
